PMC4559964, “Cytotoxicity of selected Cameroonian medicinal plants and Nauclea pobeguinii towards multi-factorial drug-resistant cancer cells” (BMC Complementary and Alternative Medicine, 2015)
Where two headings read alike, the source gives them in different places.

What was measured:
[1] = system: HCT116 (p53+/+) colon cancer cells; assay: Resazurin reduction assay, cytotoxicity on HCT116 (p53+/+); format: cell-based; details: Homo sapiens, read-out: IC50 values of compounds / doxorubicin
Experimental: (§1) The cell lines used in the present work, their origins and their treatments were previously reported. They include drug-sensitive leukemia CCRF-CEM cells, its multidrug-resistant subline CEM/ADR5000 cells, breast cancer MDA-MB-231-pcDNA3 cells, its resistant subline MDA-MB-231-BCRP clone 23) cells, colon HCT116 (p53^+/+) cancer cells, its knockout clones HCT116 (p53^−/−), glioblastoma U87MG cells, its resistant subline U87MG.ΔEGFR cells and normal AML12 hepatocytes. […] Breast cancer cells, transduced with control vector (MDA-MB-231-pcDNA3) or with cDNA for the breast cancer resistance protein BCRP (MDA-MB-231-BCRP clone 23), were maintained under standard conditions as described above for CCRF-CEM cells. Human wild-type HCT116 (p53^+/+) colon cancer cells as well as knockout clones HCT116 (p53^−/−) derived by homologous recombination were a generous gift from Dr. B. Vogelstein and H. Hermeking (Howard Hughes Medical Institute, Baltimore, MD). Human glioblastoma multiforme U87MG cells (non-transduced) and U87MG cell line transduced with an expression vector harboring an epidermal growth factor receptor (EGFR) gene with a genomic deletion of exons 2 through 7 (U87MG.ΔEGFR) were kindly provided by Dr. W. K. Cavenee (Ludwig Institute for Cancer Research, San Diego, CA). MDA-MB-231-BCRP, U87MG.ΔEGFR and HCT116 (p53^−/−) were maintained in DMEM medium containing 10 % FBS (Invitrogen) and 1 % penicillin (100 U/mL)-streptomycin (100 μg/mL) (Invitrogen) and were continuously treated with 800 ng/mL and 400 μg/mL geneticin, respectively. Normal AML12 heptocytes were obtained from the American Type Culture Collection (ATCC, USA). The above medium without geneticin was used to maintain MDA-MB-231, U87MG, HCT116 (p53^+/+) and AML12 cell lines. The cells were passaged twice weekly. All experiments were performed with cells in the logarithmic growth phase.
(§2) The cytotoxicity of the tested samples was performed by resazurin reduction assay as we previously described. Briefly, adherent cells at 1 × 10^4 cells were allowed to attach overnight and were then treated with different concentrations of the studied samples. For suspension cells, aliquots of 2 × 10^4 cells per well were seeded in 96-well-plates in a final volume of 200 μL. […] After 72 h incubation and resazurin (Sigma-Aldrich, Schnelldorf, Germany) staining, fluorescence was measured on an Infinite M2000 Pro™ plate reader (Tecan, Crailsheim, Germany) using an excitation wavelength of 544 nm and an emission wavelength of 590 nm. Each assay was done at least two times, with six replicates each. IC50 values represent the sample concentration required to inhibit 50 % of cell proliferation and were calculated from a calibration curve by linear regression using Microsoft Excel.

[2] = system: U87MG.ΔEGFR cells; assay: Resazurin reduction assay, cytotoxicity on U87MG.ΔEGFR; format: cell-based, human; details: for IC50: Homo sapiens, 72 h, read-out: IC50 values of compounds / doxorubicin; for degree of resistance: ratio IC50 U87MG.ΔEGFR / IC50 U87MG
Experimental: as §1, §2

[3] = system: breast cancer MDA-MB-231-pcDNA3 cells; assay: Resazurin reduction assay, cytotoxicity on MDA-MB231; format: cell-based; details: read-out: IC50 values of compounds / doxorubicin
Experimental: as §1, §2

[4] = system: multidrug-resistant leukemia CEM/ADR5000 cells; assay: Resazurin reduction assay, cytotoxicity on CEM/ADR5000; format: cell-based; details: for degree of resistance: ratio IC50 CEM/ADR5000 / IC50 CCRF-CEM; for IC50: Homo sapiens, read-out: IC50 values of compounds / doxorubicin
Experimental: as §1, §2

[5] = system: normal AML12 hepatocytes; assay: Resazurin reduction assay, cytotoxicity on normal AML12 hepatocytes; format: cell-based; details: Mus musculus, read-out: IC50 values of compounds / doxorubicin
Experimental: as §1, §2

[6] = system: glioblastoma multiforme U87MG cells; assay: Resazurin reduction assay, cytotoxicity on U87MG; format: cell-based; details: Homo sapiens, U-87 MG, 72 h, read-out: IC50 values of compounds / doxorubicin
Experimental: as §1, §2

[7] = system: drug-sensitive leukemia CCRF-CEM cells; assay: Resazurin reduction assay, cytotoxicity on CCRF-CEM; format: cell-based; details: Homo sapiens, 72 h, read-out: IC50 values of compounds / doxorubicin
Experimental: as §1, §2

[8] = system: HCT116 (p53−/−) colon cancer cells; assay: Resazurin reduction assay, cytotoxicity on HCT116 (p53-/-); format: cell-based, human; details: for IC50: Homo sapiens, read-out: IC50 values of compounds / doxorubicin; for degree of resistance: ratio IC50 HCT116 (p53−/−) / IC50 HCT116 (p53+/+)
Experimental: (§3) The cell lines used in the present work, their origins and their treatments were previously reported. […] Human wild-type HCT116 (p53^+/+) colon cancer cells as well as knockout clones HCT116 (p53^-/-) derived by homologous recombination were a generous gift from Dr. B. […] (Howard Hughes Medical Institute, Baltimore, MD). Human glioblastoma multiforme U87MG cells (non-transduced) and U87MG cell line transduced with an expression vector harboring an epidermal growth factor receptor (EGFR) gene with a genomic deletion of exons 2 through 7 (U87MG.ΔEGFR) were kindly provided by Dr. W. K. Cavenee (Ludwig Institute for Cancer Research, San Diego, CA). MDA-MB-231-BCRP, U87MG.ΔEGFR and HCT116 (p53^-/-) were maintained in DMEM medium containing 10 % FBS (Invitrogen) and 1 % penicillin (100 U/mL)-streptomycin (100 μg/mL) (Invitrogen) and were continuously treated with 800 ng/mL and 400 μg/mL geneticin, respectively. Normal AML12 heptocytes were obtained from the American Type Culture Collection (ATCC, USA). The above medium without geneticin was used to maintain MDA-MB-231, U87MG, HCT116 (p53^+/+) and AML12 cell lines. The cells were passaged twice weekly. All experiments were performed with cells in the logarithmic growth phase. […] Briefly, adherent cells at 1 × 10^4 cells were allowed to attach overnight and were then treated with different concentrations of the studied samples. For suspension cells, aliquots of 2 × 10^4 cells per well were seeded in 96-well-plates in a final volume of 200 μL. […] After 72 h incubation and resazurin (Sigma-Aldrich, Schnelldorf, Germany) staining, fluorescence was measured on an Infinite […]TM plate reader (Tecan, Crailsheim, Germany) using an excitation wavelength of 544 nm and an emission wavelength of 590 nm. Each assay was done at least two times, with six replicates each.

[9] = system: leukemia CCRF-CEM cells; assay: Preliminary cytotoxicity study at a single concentration on CCRF-CEM; format: cell-based; details: doxorubicin 10 μM, positive control
Experimental: Briefly, adherent cells at 1 × 10^4 cells were allowed to attach overnight and were then treated with different concentrations of the studied samples. For suspension cells, aliquots of 2 × 10^4 cells per well were seeded in 96-well-plates in a final volume of 200 μL. […] Each assay was done at least two times, with six replicates each.

[10] = system: MDA-MB-231-BCRP clone 23 cells; assay: Resazurin reduction assay, cytotoxicity on MDA-MB231/BCRP; format: cell-based; details: for degree of resistance: ratio IC50 MDA-MB231/BCRP / IC50 MDA-MB231; for IC50: MDA-MB-231/BCRP, 72 h, mean ± SD
Experimental: as §3

[11] = system: eight tested cancer cell lines; assay: Resazurin reduction assay, summary over the panel of tested cell lines; format: cell-based
Experimental: as §1, §2

[12] = MDA-MB231/BCRP, read-out: IC50 values of compounds / doxorubicin
[13] = HCT-116, HCT116 (p53+/+), 72 h, mean ± SD
[14] = all eight tested cancer cell lines, read-out: IC50 over all tested cell lines
[15] = Homo sapiens, MDA-MB-231, 72 h, MDA-MB231, 72 h, mean ± SD
[16] = HCT-116, HCT116 (p53−/−), 72 h, mean ± SD
[17] = read-out: IC50 values of compounds / doxorubicin, MDA-MB231/BCRP

Row | IC50 [11, 14] [µM] | Structure (SMILES) | IC50 ([2]; U87MG.ΔEGFR, mean ± SD) [µM] | degree of resistance [2] | degree of resistance [4] | IC50 ([5]; AML12 normal hepatocytes, 72 h) [µM] | IC50 ([6]; U87MG, mean ± SD) [µM] | IC50 ([7]; mean ± SD) [µM] | degree of resistance [8] | degree of resistance [10] | IC50 [10, 12] [µM] | IC50 [1, 13] [µM] | IC50 [3, 15] [µM] | IC50 ([4]; CEM/ADR5000, 72 h, mean ± SD) [µM] | IC50 [8, 16] [µM] | also measured
1 |  | COc1cccc2c1C(=O)c1c(O)c3c(c(O)c1C2=O)C[C@@](O)(C(=O)CO)C[C@@H]3O[C@H]1C[C@H](N)[C@H](O)[C@H](C)O1 [doxorubicin, Doxorubicin, reference compound] | 6.11 ± 0.57 | 5.76 | 975.60 | > 73.6 | 1.06 ± 0.15 | 0.2 ± 0.06 | 2.88 | 7.12 |  |  |  |  |  | IC50 ([1]; HCT-116, 72 h): 1.41 ± 0.29 µM; IC50 ([3]; Homo sapiens, MDA-MB-231, MDA-MB231, 72 h, mean ± SD): 1.1 ± 0.28 µM; IC50 ([8]; HCT-116, 72 h): 4.06 ± 0.07 µM; Growth percentage of CCRF-CEM leukemia cells [9]: 13.6%
2 |  | C=C[C@H]1[C@H](O[C@@H]2O[C@H](CO)[C@@H](O)[C@H](O)[C@H]2O)OC=C2C(=O)N3CCc4c([nH]c5ccccc45)[C@@H]3C[C@H]21 [Compound 6, strictosamide] |  |  | > 1.04 |  |  |  |  | < 0.97 | 78.3 ± 6.22 |  |  |  |  | IC50 ([1]; HCT-116, 72 h): > 80.3 µM; IC50 [2]: > 80.3 µM; IC50 ([11]; read-out: IC50): < 80.3 µM; IC50 ([3]; Homo sapiens, MDA-MB-231, 72 h): > 80.3 µM; IC50 ([4]; ADR5000, 72 h): > 80.3 µM; IC50 ([5]; AML12, 72 h): > 80.3 µM; IC50 [6]: > 80.3 µM; IC50 [7]: 77.1 ± 5.87 µM; IC50 ([8]; HCT-116, 72 h): > 80.3 µM
3 | > 171 | COC(=O)CC(O)(CC(=O)OC)C(=O)OC [Compound 3, citric acid trimethyl ester] | > 171 |  |  | > 171 | > 171 | > 171 |  |  | > 171 | > 171 | > 171 | > 171 | > 171 | 
4 | > 244 | O=C(O)/C=C/c1ccc(O)cc1 [Compound 2, p-coumaric acid] | > 244 |  |  | > 244 | > 244 | > 244 |  |  |  | > 244 | > 244 | > 244 | > 244 | IC50 [10, 17]: > 244 µM
5 |  | Oc1ccc(/C=C/c2cc(O)cc(O)c2)cc1 [Compound 4, resveratrol] | 28.4 ± 2.06 | 0.37 | 2.04 | > 175 | 76.6 ± 4.92 | 28.2 ± 1.32 | > 2.38 |  |  | 73.7 ± 5.67 | < 23 | 57.4 ± 3.67 | > 175 | IC50 ([11]; seven out of eight cell lines, read-out: IC50): < 175 µM; IC50 ([3]; MDA-MB231, 72 h, mean ± SD): 19.9 ± 1.45 µM
6 | < 100 | OC[C@H]1O[C@@H](Oc2cc(O)cc(/C=C/c3ccc(O)cc3)c2)[C@H](O)[C@@H](O)[C@@H]1O [Compound 5, resveratrol β-D-glucopyranoside] | 47.6 ± 3.29 | 0.86 | 1.59 | > 103 | 55.6 ± 3.73 | 25.1 ± 2.48 | 0.74 | 0.98 |  | 63.8 ± 4.61 | 97.6 ± 7.6 | 39.9 ± 2.91 | 47 ± 4.94 | IC50 [10, 17]: 95.6 ± 8.17 µM

Row | Structure (SMILES) | IC50 [11, 14] [µM] | IC50 ([2]; U87MG.ΔEGFR, mean ± SD) [µM] | degree of resistance [2] | degree of resistance [4] | IC50 ([5]; AML12 normal hepatocytes, 72 h) [µM] | IC50 ([6]; U87MG, mean ± SD) [µM] | IC50 ([7]; mean ± SD) [µM] | degree of resistance [8] | degree of resistance [10] | IC50 [10, 12] [µM] | IC50 [1, 13] [µM] | IC50 [3, 15] [µM] | IC50 ([4]; CEM/ADR5000, 72 h, mean ± SD) [µM] | IC50 [8, 16] [µM] | also measured
7 | CC(=O)O[C@H]1CC[C@]2(C)[C@H]3C(=O)C=C4[C@@H]5[C@@H](C)[C@H](C)CC[C@]5(C)CC[C@@]4(C)[C@]3(C)CC[C@H]2C1(C)C [Compound 1, 3-acetoxy-11-oxo-urs-12-ene] | > 82.9 | > 82.9 |  |  | > 82.9 | > 82.9 | > 82.9 |  |  | > 82.9 | > 82.9 | > 82.9 | > 82.9 | > 82.9 | 
